In publication PMC5318895, “Inhibition of N1-Src kinase by a specific SH3 peptide ligand reveals a role for N1-Src in neurite elongation by L1-CAM” (Scientific Reports, 2017):

Legend:
hippocampal neurons = experiment: neurite growth of hippocampal neurons after N1-Src shRNA knockdown; type: cell-based, rat; conditions: pSUPER-GFP shRNA, 48 h and 96 h post-transfection, versus empty plasmid or non-targeting shRNA, n = 90 neurons, Kruskal-Wallis
Procedure: We next took advantage of the specificity of PDN1 to investigate the role of endogenous N1-Src in neurite outgrowth in cultured neurons. CFP-PDN1 or -PDN1(P5A) was transfected into 1 DIV CGNs and their morphology analysed after […]. During CGN development in vivo and immediately after plating in vitro, the cells grow two processes before polarising to yield a single axon and the second process retracts to become a dendrite and further dendrites are initiated. The axon then extends further before bifurcating. […] To further confirm that N1-Src regulates neurite growth we employed an shRNA expressing plasmid (pSUPER-GFP) to knockdown N1-Src in neurons. […] The successful N1-Src shRNA plasmid was transfected into hippocampal neurons, and the length of the longest neurite in GFP-positive neurons was assessed at 48 h and 96 h post-transfection. […] Thus, perturbing N1-Src activity with PDN1 or knockdown of the protein produces the same neurite phenotype in primary neuronal cultures.
Figure 5 Knockdown of N1-Src phenocopies the action of PDN1 in cultured neurons. […] (c,d) Cultured hippocampal neurons transfected with pSUPER-GFP (control) or pSUPER-GFP encoding N1-Src specific shRNA were analysed for length of longest neurite at 48 or 96 h. […] Data were normalised to the 48 h control and plotted as mean ± SEM, n = 90 neurons, with 30 cells analysed per condition in 3 independent experiments. […]

N1-Src [1] = experiment: isoform specificity of N1-Src shRNA co-expressed with C-, N1- or N2-Src in COS7 cells; type: cell-based, rat; conditions: COS7, co-transfected 72 h with C-, N1- or N2-Src-FLAG; anti-FLAG immunoblot
C-Src SH3 domain = conditions: cited from earlier work
From the text: The PDN1 consensus motif, RxPxxTxK, represents a novel SH3 ligand and lacks a canonical PxxP, thus confirming the six amino acid N1-Src splice insert has a dramatic effect on the structure of its SH3 domain. The ligand binding site in the majority of SH3 domains, including C-Src, comprises three pockets, two of which interact with the core xP motifs and one that adds specificity through binding flanking residues. […] Indeed, one of the few ...

N1-Src [2] = molecular target: T1, N1-Src (Rattus norvegicus, UniProt Q9WUD9); experiment: in vitro kinase assay, N1-Src phosphorylation of GST-Y-PDN substrates; type: biochemical; set-up: His; made in house; host or cells: E. coli; conditions: PDN1 fused to an ideal Src substrate
Procedure: Figure 1 Identification of a novel ligand consensus sequence for the N1-Src SH3 domain. (a) Schematic of the kinase assay used to validate the effect of potential SH3 domain ligands on the phosphorylation of an ideal tyrosine motif (Y in bold) located upstream of a 10 aa linker and 12 aa phage peptide. (b) GST-Y-PDN1–6 substrates at 0.3, 0.9, 2.8 or 8.3 μM were phosphorylated in vitro with 5 nM C- or N1-Src at 30 °C and the phosphorylation detected by anti-phosphotyrosine immunoblot. Immunoblots are representative of three independent experiments. (c) Alignment of the phage display peptides ranked by N1-Src selectivity derived from results in (b). Shaded residues represent the common consensus sequence. […] (e) GST-Y-PDN1 substrates with the indicated point mutations (see insert) at 8.3 μM were phosphorylated by 5 nM N1-Src and the extent of phosphorylation was measured by densitometry of phosphotyrosine immunoreactivity. […]
The PDN peptides were tested for specificity for the N1-Src SH3 domain using a kinase assay in which a GST fusion of an ideal Src substrate peptide (Y) and a putative SH3 ligand peptide can distinguish SH3 domain specificity (Fig. 1a). Based on our previous study, we chose a range of substrate concentrations at which an enhancement in phosphorylation by docking to canonical peptide ligands for the C-Src SH3 domain can be detected (8.3 μM and below)[12]. […]

N1-Src [3] = molecular target: T1, N1-Src; experiment: inhibition of N1-Src phosphorylation of GST-Y by free soluble peptide; type: biochemical; set-up: His; made in house; host or cells: E. coli; conditions: free soluble peptide titrated with 5 nM N1-Src and GST-Y; phosphotyrosine immunoblot densitometry; n = 3
Procedure: Previous studies have shown that soluble SH3 ligands can enhance Src family kinase activity in vitro[20][21]. […] This experiment raised the possibility that PDN1 could act as an N1-Src inhibitor in cells. […] We observed that COS7 cells transfected with N1-Src-FLAG underwent a striking change in morphology within 48 h (Fig. 3a). Similar to that previously observed in Xenopus epithelial cells, overexpression of the kinase induced the growth of neurite-like processes (Fig. 3b) and an approximate 35% reduction in area of the cell soma (Fig. 3c). […] Using cell morphology as a readout, we assessed the effect of CFP-PDN1 and PDN1(P5A) on N1-Src activity in cells. […] We also assessed the effect of PDN1 on N2-Src expressing cells because the first five amino acids of its SH3 insert are identical to that in N1-Src[3].
Figure 2 PDN1 inhibits N1-Src activity in vitro. GST-Y was incubated with 5 nM N1-Src and the indicated concentrations of either PDN1 or PDN1(P5A) and the extent of phosphorylation determined by densitometry of phosphotyrosine immunoreactivity. […]
Phosphorylation reactions were performed as previously described, prepared in kinase reaction buffer (100 mM Tris, 10 mM MgCl2, pH 7.5) and initiated by the addition of pre-warmed ATP (0.5 mM final concentration) and incubated at 30 °C for the indicated times. […] Due to the non-quantitative measurement of V, Vmax was not determined. […]

Substance: 5′-GGAAGGTGGATGTCAGAGA-3′ (expressed or natural sequence; target site or template, no part of the molecule) [N1-Src shRNA]
- inhibition of neurite growth (length of longest neurite) (hippocampal neurons): significant time-dependent inhibition of neurite growth
- isoform specificity of knockdown (N1-Src [1]): confirmed isoform specificity

Substance: RSLRPLPPLPPRPPF [phage display ligand selected by the PI3-kinase SH3 domain]
- binding to the C-Src SH3 domain (C-Src SH3 domain): did not bind the C-Src SH3 domain

Substance: WHRMPAYTAKYP [PDN1, 12mer peptide derived from a phage display screen of the N1-Src SH3 domain]
- enhancement of substrate phosphorylation by N1-Src (N1-Src [2]): enhanced the specific in vitro phosphorylation of an ideal substrate by N1-Src
- inhibition of GST-Y phosphorylation (N1-Src [3]): inhibited GST-Y phosphorylation in a dose dependent manner
